From the NIST ThermoML archive (doi:10.1021/je050054u)

Details: Liquid, Closed cell (Static) method

CCF [fluoroethane]
Details | vapor or sublimation pressure [kPa]
235.69 K | 101.5
235.74 K | 101.7
235.79 K | 101.9
235.84 K | 102.2
235.89 K | 102.4
235.94 K | 102.6
236 K | 102.9
236.09 K | 103.4
237.11 K | 108.3
238.07 K | 113.3
240.11 K | 124.1
242.12 K | 135.4
244.1 K | 147.6
245.09 K | 153.8
247.09 K | 167.1
249.1 K | 181.5
251.07 K | 196.3
253.11 K | 212.7
255.11 K | 229.7
257.13 K | 247.8
259.11 K | 267.6
261.11 K | 288
263.12 K | 309.5
264.11 K | 320.7
265.1 K | 332.4
266.12 K | 344.5
267.13 K | 356.6
268.13 K | 369.1
269.13 K | 382
270.13 K | 395.3
271.13 K | 408.8
272.15 K | 422.9
273.12 K | 436.7
274.11 K | 451.2
275.11 K | 466
276.14 K | 481.8
277.14 K | 497.5
278.17 K | 513.9
279.14 K | 529.9
280.13 K | 546.6
281.13 K | 563.9
282.16 K | 581.9
283.14 K | 599.6
285.18 K | 636.5
287.13 K | 675.1
288.13 K | 695.2
290.14 K | 737.5
292.01 K | 777.9
294.03 K | 824.2
296.04 K | 871.8
298.07 K | 921.9
300.05 K | 972.9
302 K | 1024.9
304.03 K | 1081.4
306.12 K | 1141.9
308.08 K | 1200.9
310.32 K | 1270.6
312.19 K | 1330.5
314.18 K | 1398.1
316.32 K | 1472.8
316.33 K | 1473.6
318.17 K | 1539.8
320.14 K | 1613.2
322.13 K | 1690.2
324.12 K | 1770.2
326.11 K | 1852.2
328.13 K | 1938.9
330.15 K | 2027
332.15 K | 2119.3
333.15 K | 2167.4
334.16 K | 2215.1
335.15 K | 2263.9
336.15 K | 2313.2
337.15 K | 2363.2
338.16 K | 2414.5
339.15 K | 2465.8
340.16 K | 2518.5
341.15 K | 2572
342.15 K | 2626.3
343.15 K | 2681.7
344.14 K | 2737.4
345.15 K | 2794.3
346.15 K | 2852.2
347.15 K | 2910.8
348.15 K | 2970.7
349.15 K | 3030.8
350.15 K | 3092.2
351.15 K | 3154.5
352.15 K | 3218
353.14 K | 3282
354.15 K | 3347.6
355.15 K | 3414.2
356.15 K | 3481.2
357.14 K | 3549.5
358.14 K | 3619.1
359.14 K | 3689.1
360.15 K | 3761.3
361.15 K | 3834
362.16 K | 3908
363.14 K | 3982.2
364.14 K | 4058.4
364.15 K | 4060.2
365.14 K | 4138
366.15 K | 4216.8
367.15 K | 4295.8
368.16 K | 4376.8
369.14 K | 4460.1
370.14 K | 4543.5
371.14 K | 4627.6
372.14 K | 4713.9
